Data as given in patent US9695155B2, “Herbicidal substituted pyrimidinyloxy benzene compounds” (E. I. DU PONT DE NEMOURS AND COMPANY, priority 2013, dated 2017).

Legend:
[1] = tested on: Italian ryegrass; test: Test C preemergence; type: in vivo, Lolium multiflorum
Outline: (§1)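 Whole-plant greenhouse test with surfactant-containing solvent formulation, applied preemergence to sown loam–sand pots or postemergence to 2–18 cm plants. Scored by eye 13 to 15 days on, 0–100 scale.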

[2] = tested on: blackgrass; test: Test C preemergence; type: in vivo, Alopecurus myosuroides
Excerpt: (§2) Seeds of plant species selected from blackgrass (Alopecurus myosuroides), Italian ryegrass (Lolium multiflorum), wheat, winter (winter wheat, Triticum aestivum), galium (catchweed bedstraw, Galium aparine), corn (Zea mays), large (Lg) crabgrass (Digitaria sanguinalis), giant foxtail (Setaria faberii), johnsongrass (Sorghum halepense), lambsquarters (Chenopodium album), morningglory (Ipomoea coccinea), yellow nutsedge (Cyperus esculentus), pigweed (Amaranthus retroflexus), ragweed (common ragweed, Ambrosia elatior), soybean (Glycine max), barnyardgrass (Echinochloa crus-galli), oilseed rape (Brassica napus), waterhemp (common waterhemp, Amaranthus rudis), kochia (Kochia scoparia), wild oat (Avena fatua), surinam grass (Brachiaria decumbens), foxtail, green (green foxtail, Setaria viridis), goosegrass (Eleusine indica), bromegrass, downy (downy bromegrass, Bromus tectorum), nightshade (eastern black nightshade, Solanum ptycanthum), cocklebur (common cocklebur, Xanthium strumarium), cupgrass, woolly (woolly cupgrass, Eriochloa villosa), bermudagrass (Cynodon dactylon), sunflower, (common oilseed sunflower, Helianthus annuus), Russian thistle (Salsola kali), and velvetleaf (Abutilon theophrasti) were planted into a blend of loam soil and sand and treated preemergence with test chemicals formulated in a non-phytotoxic solvent mixture which included a surfactant.
(§3) At the same time, plants selected from these crop and weed species and also barley, winter (winter barley, Hordeum vulgare), windgrass (Apera spica-venti), chickweed (common chickweed, Stellaria media), deadnettle (henbit deadnettle, Lamium amplexicaule), and canarygrass (littleseed canarygrass, Phalaris minor) were planted in pots containing Redi-Earth® planting medium (Scotts Company, 14111 Scottslawn Road, Marysville, Ohio 43041) comprising spaghnum peat moss, vermiculite, wetting agent and starter nutrients and treated with postemergence applications of test chemicals formulated in the same manner. Plants ranged in height from 2 to 18 cm (1- to 4-leaf stage) for postemergence treatments. Treated plants and controls were maintained in a greenhouse for 13 to 15 days, after which time all species were compared to controls and visually evaluated. Plant response ratings, summarized in Table C, are based on a scale of 0 to 100 where 0 is no effect and 100 is complete control. A dash (-) response means no test result.

[3] = tested on: sedge, umbrella; test: Test B flooded paddy test; type: in vivo, Cyperus difformis; conditions: Flood, 250 g ai/ha, 0 to 100 scale where 0 is no effect and 100 is complete control
Outline: (§4)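 Flooded to 3 cm at the 2-leaf stage, pots received compound through the paddy water and were kept at that depth under greenhouse conditions. After 13–15 days, effect was rated by eye relative to controls, 0 = none and 100 = complete control.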

[4] = tested on: velvetleaf; test: Test C preemergence; type: in vivo, Abutilon theophrasti
Outline: as §1

[5] = tested on: ragweed; test: Test C preemergence; type: in vivo, Ambrosia elatior
Outline: as §1

[6] = tested on: wheat, winter; test: Test C preemergence; type: in vivo, Triticum aestivum
Excerpt: as §2, §3

[7] = tested on: wheat; test: Test A postemergence; type: in vivo, Triticum aestivum
Outline: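 Scoring: eye-based comparison with untreated controls, 0 for no effect through 100 for complete control, at about day 10. Treatments: directed soil spray preemergence; foliar spray postemergence on 2–10 cm plants at the one- to two-leaf stage. Medium: loam soil with sand.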

[8] = tested on: johnsongrass; test: Test C preemergence; type: in vivo, Sorghum halepense
Outline: as §1

[9] = tested on: Heteranthera limosa; test: Test B flooded paddy test; type: in vivo; conditions: Flood, 250 g ai/ha, 0 to 100 scale where 0 is no effect and 100 is complete control
Outline: as §4

[10] = 16 g ai/ha, preemergence, scale 0 to 100 (0 no effect, 100 complete control)
[11] = 125 g ai/ha, preemergence, scale 0 (no effect) to 100 (complete control)
[12] = Preemergence, 62 g ai/ha, scale 0 to 100, 0 no effect, 100 complete control

Compound N#Cc1cccc(Oc2ncc(Cl)cn2)c1-n1cnc(C(F)(F)F)c1 [Compound 252, 3-[(5-chloro-2-pyrimidinyl)oxy]-2-[4-(trifluoromethyl)-1H-imidazol-1-yl]benzonitrile] has a pest or weed control at 16 g/ha ([1]; Lolium multiflorum, pre-emergence, 16 g ai/ha, preemergence, scale 0 to 100 (0 no effect, 100 complete control), read-out: Ryegrass, Italian plant response rating) of 0%, a pest or weed control at 125 g/ha ([1]; Lolium multiflorum, pre-emergence, 125 g ai/ha, preemergence, scale 0 (no effect) to 100 (complete control), read-out: Ryegrass, Italian plant response rating) of 90% and a pest or weed control at 62 g/ha ([1]; Lolium multiflorum, pre-emergence, Preemergence, 62 g ai/ha, scale 0 to 100, 0 no effect, 100 complete control, read-out: Plant response rating, Ryegrass, Italian) of 60%. It also gave a pest or weed control at 16 g/ha ([2]; Alopecurus myosuroides, pre-emergence, 16 g ai/ha, preemergence, scale 0 to 100 (0 no effect, 100 complete control), read-out: Blackgrass plant response rating) of 10%, a pest or weed control at 125 g/ha ([2]; Alopecurus myosuroides, pre-emergence, 125 g ai/ha, preemergence, scale 0 (no effect) to 100 (complete control), read-out: Blackgrass plant response rating) of 95% and a pest or weed control at 62 g/ha ([2]; Alopecurus myosuroides, pre-emergence, Preemergence, 62 g ai/ha, scale 0 to 100, 0 no effect, 100 complete control, read-out: Plant response rating, Blackgrass) of 90%. It also gave a pest or weed control at 250 g/ha ([3]; Cyperus difformis, read-out: Plant response rating, Sedge, Umbrella) of 80%, a pest or weed control at 16 g/ha ([4]; Abutilon theophrasti, pre-emergence, 16 g ai/ha, preemergence, scale 0 to 100 (0 no effect, 100 complete control), read-out: Velvetleaf plant response rating) of 75% and a pest or weed control at 125 g/ha ([4]; Abutilon theophrasti, pre-emergence, 125 g ai/ha, preemergence, scale 0 (no effect) to 100 (complete control), read-out: Velvetleaf plant response rating) of 100%. The pest or weed control at 62 g/ha ([4]; Abutilon theophrasti, pre-emergence, Preemergence, 62 g ai/ha, scale 0 to 100, 0 no effect, 100 complete control, read-out: Plant response rating, Velvetleaf) was 100%, the pest or weed control at 16 g/ha ([5]; Ambrosia artemisiifolia, pre-emergence, 16 g ai/ha, preemergence, scale 0 to 100 (0 no effect, 100 complete control), read-out: Ragweed plant response rating) was 40% and the pest or weed control at 125 g/ha ([5]; Ambrosia artemisiifolia, pre-emergence, 125 g ai/ha, preemergence, scale 0 (no effect) to 100 (complete control), read-out: Ragweed plant response rating) was 100%. The pest or weed control at 62 g/ha ([5]; Ambrosia artemisiifolia, pre-emergence, Preemergence, 62 g ai/ha, scale 0 to 100, 0 no effect, 100 complete control, read-out: Plant response rating, Ragweed) was 98%, the plant injury at 16 g/ha ([6]; Triticum aestivum, pre-emergence, 16 g ai/ha, preemergence, scale 0 to 100 (0 no effect, 100 complete control), read-out: Wheat plant response rating) was 0% and the plant injury at 125 g/ha ([6]; Triticum aestivum, pre-emergence, 125 g ai/ha, preemergence, scale 0 (no effect) to 100 (complete control), read-out: Wheat plant response rating) was 45%. It also gave a plant injury at 62 g/ha ([6]; Triticum aestivum, pre-emergence, Preemergence, 62 g ai/ha, scale 0 to 100, 0 no effect, 100 complete control, read-out: Plant response rating, Wheat) of 0%, a plant injury at 31 g/ha ([7]; Triticum aestivum, post-emergence, 240 h, 31 g ai/ha, 0 to 100 scale, 0 no effect, 100 complete control, read-out: Plant response rating, Wheat) of 20% and a plant injury at 125 g/ha ([7]; Triticum aestivum, post-emergence, 240 h, 125 g ai/ha, 0 to 100 scale, 0 no effect, 100 complete control, read-out: Plant response rating, Wheat) of 30%. The plant injury at 500 g/ha ([7]; Triticum aestivum, post-emergence, 240 h, 500 g ai/ha, 0 to 100 scale where 0 is no effect and 100 is complete control, read-out: Plant response rating, Wheat) was 90%, the pest or weed control at 16 g/ha ([8]; Sorghum halepense, pre-emergence, 16 g ai/ha, preemergence, scale 0 to 100 (0 no effect, 100 complete control), read-out: Johnsongrass plant response rating) was 5% and the pest or weed control at 125 g/ha ([8]; Sorghum halepense, pre-emergence, 125 g ai/ha, preemergence, scale 0 (no effect) to 100 (complete control), read-out: Johnsongrass plant response rating) was 100%. For the same compound, the pest or weed control at 62 g/ha ([8]; Sorghum halepense, pre-emergence, Preemergence, 62 g ai/ha, scale 0 to 100, 0 no effect, 100 complete control, read-out: Plant response rating, Johnsongrass) was 80% and the pest or weed control at 250 g/ha ([9]; Heteranthera limosa, read-out: Plant response rating, Ducksalad) was 75%.
With Fc1cccc(Oc2ncc(Cl)cn2)c1-n1cc(OCC(F)(F)F)cn1 [Compound 270] the “Ryegrass, Italian plant response rating” value [1, 10] was 0, the “Ryegrass, Italian plant response rating” value [1, 11] was 50 and the “Plant response rating, Ryegrass, Italian” value [1, 12] was 10. For the same compound, the “Blackgrass plant response rating” value [2, 10] was 0, the “Blackgrass plant response rating” value [2, 11] was 95 and the “Plant response rating, Blackgrass” value [2, 12] was 70. For the same compound, the “Plant response rating, Sedge, Umbrella” value [3] was 90, the “Velvetleaf plant response rating” value [4, 10] was 0 and the “Velvetleaf plant response rating” value [4, 11] was 100. The “Plant response rating, Velvetleaf” value [4, 12] was 98, the “Ragweed plant response rating” value [5, 10] was 0 and the “Ragweed plant response rating” value [5, 11] was 70. For the same compound, the “Plant response rating, Ragweed” value [5, 12] was 45, the “Wheat plant response rating” value [6, 10] was 0 and the “Wheat plant response rating” value [6, 11] was 5. For the same compound, the “Plant response rating, Wheat” value [6, 12] was 0, the “Plant response rating, Wheat” value ([7]; 31 g ai/ha, 0 to 100 scale, 0 no effect, 100 complete control) was 0 and the “Plant response rating, Wheat” value ([7]; 125 g ai/ha, 0 to 100 scale, 0 no effect, 100 complete control) was 30. The “Johnsongrass plant response rating” value [8, 10] was 0, the “Johnsongrass plant response rating” value [8, 11] was 95 and the “Plant response rating, Johnsongrass” value [8, 12] was 40. The “Plant response rating, Ducksalad” value [9] was 100.
